`CCCCCCCNC(=O)N(C)c1cccc(-c2ccc(CC3SC(=O)NC3=O)cc2)c1` (stereo unspecified) displayed a melting point of 55 °C.

Turning to `Cn1nc(C(=O)C(=O)c2ccccc2)ccc1=O`, the melting point was 89 to 92 °C.

`O=C1NCCC[C@@H]1NS(=O)(=O)c1cccc(C(F)(F)F)c1`: the melting point was in the range of 158 to 160 °C.

Compound `O=C(CCCCCCC(=O)N1CCN(CC(=O)Nc2nc3ccccc3s2)CC1)NO` had a melting point of 166 to 170 °C.

As to `COc1ccc2[nH]c(SCc3nccc(N4CCCCC4)n3)nc2c1`, the melting point lay within 145 to 147 °C.

In turn, `CC(C)(C)c1cc(C(=O)NC2CCCCC2)cc(C(C)(C)C)c1O` yielded a melting point of 236 to 237 °C.

The compound `Cc1c(C(=O)O)nnn1Cc1c(F)cccc1F` displayed a melting point of 166 to 167 °C.

Compound `CSCC(=O)[C@H](Cc1ccccc1)NC(=O)[C@H](CC(C)C)NC(=O)OCc1ccccc1` showed a melting point of 81 to 91 °C.

Compound `CC(C)(C)c1ccc(NC(=O)Nc2cccc(C(=O)O)c2)cc1` returned a melting point of 147 to 148 °C.

On to `COc1ccc(C2(C#Cc3ccccn3)CCC3(CC2)OCCO3)cc1OC1CCCC1`, for which the melting point lay in the range of 41 to 42 °C.

In the case of `CCCOc1ccc(C(CC(N)=O)N2C(=O)c3ccccc3C2=O)cc1` (stereo unspecified), the melting point amounted to 110 °C.

In turn, `O=[N+]([O-])c1cccc(-c2nnc(Nc3cccc(SCCCc4ccccc4)c3)s2)c1` came in with a melting point of 169 to 171 °C.

On to `Cc1ccccc1OCC1COC(Cn2ccnc2)(c2ccc(Cl)cc2Cl)O1` (stereo unspecified), for which the melting point came to 138 °C.

Compound `COC(=O)C(C)Oc1cc(C)ccc1C=O` (stereo unspecified) gave a melting point of 65 to 68 °C.

Take `Cc1cc(OC(F)F)nc(NC(=O)NS(=O)(=O)c2ccccn2)n1`: the melting point is 150 to 151 °C.

`CCc1nn(-c2ccc3cc(-c4ccc([N+](=O)[O-])cc4)c(=O)oc3c2)nc1C` had a melting point of 278 to 279 °C.

Turning to `CCOC(=O)c1cc(F)cnc1NCc1ccc(OC)cc1`, the melting point turned out to be 90 °C.

`Cc1cc(C)c(S(=O)(=O)NCC2CCN(S(=O)(=O)c3c(C)cc(C)cc3C)CC2)c(C)c1`: the melting point was in the range of 202 to 204 °C.

`CNc1nc(-c2cccc(NC(=O)c3ccc(OCc4ccccc4)cc3)c2)c2cc(OC)c(OC)cc2n1` displayed a melting point of 110 to 112 °C.

Regarding `O=C(c1ccc(F)cc1)C1(c2ccccc2)CCN(Cc2ccccc2)CC1`, the melting point is 148 °C.

As to `N#CC1OC(=O)c2c(F)ccc(F)c21` (stereo unspecified), the melting point lay within 87 to 89 °C.

`O=C(OCC1OC(n2ccc(=O)[nH]c2=O)C(O)C1OC(=O)c1ccccc1)c1ccccc1` (stereo unspecified) had a melting point of 111 to 114 °C.

`CCc1cc(Cl)ccc1NC(C)=O` gave a melting point of 117 to 122 °C.

As to `COC(CC(=O)c1ccccc1)c1ccc(Cl)cc1F` (stereo unspecified), the melting point fell in the range of 59 to 61 °C.

`CC(=O)N1CCc2c1cc(C)c(S(=O)(=O)C[N+](=O)[O-])c2C` returned a melting point of 204 °C.

Regarding `C=CCc1ccc(C(NC(=O)OC(C)(C)C)C(=O)OC)cc1` (stereo unspecified), the melting point fell in the range of 60.6 to 62 °C.

With `CC1CC(=Cc2ccccc2O)C(=O)O1` (stereo unspecified), the melting point was in the range of 112 to 114 °C.

Turning to `CCc1noc(-c2cc3c(-c4cccs4)nccc3[nH]c2=O)n1`, the melting point lay within 265 to 268 °C.

`O=[N+]([O-])c1cc(F)c(NS(=O)(=O)c2ccccc2)cc1F` had a melting point of 176 °C.

Compound `O=C(NCCc1ccccn1)c1ccccc1-c1ccccc1CNS(=O)(=O)c1cccc(F)c1` displayed a melting point of 123 °C.

The compound `CCOC(=O)C1=C(C)NC(CN2C(=O)c3ccccc3C2=O)=C(C(=O)OCC)C1c1ccc(F)cc1` (stereo unspecified) had a melting point of 144 to 145 °C.

`COC(=O)Cn1c(C(=O)Nc2nc(-c3cc(OC)c(Cl)cc3OC)c(CCC3CCCCC3)s2)c(C)c2cc(C)ccc21` registered a melting point of 166 to 168 °C.

Compound `CC(C)c1cccc(C(C)C)c1NC(=O)CC1=C(c2ccccc2)c2cc(Cl)ccc2N(C)C1` displayed a melting point of 192 to 194 °C.

`CCN(C(C)=O)c1cccc(-c2ccc3nnc(C)n3n2)c1` showed a melting point of 180 to 185 °C.

Turning to `CN(C(=O)COc1cc(-c2ccccc2)nc2ccccc12)C1CCC1`, the melting point came to 110 °C.

The compound `O=C1C(Cl)=C(c2ccccc2)C(=O)N1c1ccc(Cl)cc1` returned a melting point of 116 to 117 °C.

In turn, `CCC1CCCCn2c1nc(-c1ccncn1)cc2=O` (racemic) had a melting point of 128 to 130 °C.

With `Cc1ccccc1C1c2ccccc2S(=O)(=O)N1C` (single isomer, unassigned; (+)), the melting point is 152 °C.

The compound `O=C1CCC(N2Cc3cc(CNC(=O)c4ccccc4C(F)(F)F)ccc3C2=O)C(=O)N1` (stereo unspecified) had a melting point of 303 to 305 °C.

`O=C(OCc1ccccc1)N1CCC2(CC1)CC(=O)N(O)C2=O` registered a melting point of 131 to 132 °C.

For the compound `Cc1ccc(N=c2scc(-c3ccc(Cl)c(S(=O)(=O)N(C)C)c3)n2C)c(C)c1`, the melting point lay in the range of 152 to 154 °C.

With `O=c1cnn(-c2ccc(Cl)c(C(c3ccc(Cl)cc3)c3nc(-c4ccccc4)c(CNC(=S)Nc4ccccc4)s3)c2Cl)c(=O)[nH]1` (stereo unspecified), the melting point was 159 °C.

The compound `N#Cc1ccc(CC(NC(=O)C(Cc2ccccc2)S(=O)(=O)Nc2ccc3ccccc3c2)C(=O)N2CCCCC2)cc1` (stereo unspecified) gave a melting point of 210 °C.

Regarding `N#Cc1ccc(Cc2c[nH]nn2)cc1`, the melting point was determined as 83 °C.

Take `O=C(Nc1nccc2ccc(CO)cc12)c1ccccc1`: the melting point lay in the range of 190 to 193 °C.

Take `Cc1ccnc2ccc(Cc3cnc(N)nc3N)cc12`: the melting point lay in the range of 262 to 268 °C.

The compound `OCC1OC(n2cnc3c(-n4cccc4)ncnc32)C(O)C1O` (stereo unspecified) gave a melting point of 114 to 115 °C.

In turn, `C=C(C)CO[C@H]1[C@H](C)OC(=O)[C@@H](NC(=O)c2nccc(OC)c2OCc2ccccc2)COC(=O)[C@@H]1Cc1ccccc1` returned a melting point of 50 to 52 °C.

`Cc1ccc2c(c1)Cn1nnnc1C(=O)N2` displayed a melting point of 244 to 247 °C.

With `COC(=O)C1C=CCn2c(=O)[nH]c(=O)n21` (stereo unspecified), the melting point lay within 210 to 213 °C.

`O=C(O)C(=O)CC(=O)c1ccc(Cc2ccc(Cl)c(Cl)c2)cc1` returned a melting point of 133 to 140 °C.

Compound `CC(C)(C)c1cc(-c2ccc(NC(=O)COCC(=O)O)cc2)cc(C(C)(C)C)c1O` returned a melting point of 183 to 184 °C.

The compound `C=C(Cl)Cn1c(C)c(C)c2cnnc(OCc3ccccc3)c21` returned a melting point of 88 to 90 °C.

In turn, `Cc1cccc(N2CC(=O)N(c3ccc(S(N)(=O)=O)cc3Cl)C2)c1` came in with a melting point of 198 to 202 °C.

In turn, `CNC(=O)CNC(=O)CN1CCCC1=O` showed a melting point of 139 to 140 °C.

`O=C(NC(=S)Nc1ccccc1-c1ccccc1F)c1ccccc1` displayed a melting point of 110 to 111 °C.

`O=C(NCCc1ccccc1)c1ccc(Cl)nc1` returned a melting point of 95 to 96 °C.

Turning to `C[C@]1(COC(=O)N2CCN(N=Cc3ccc(C(F)(F)F)cc3)CC2)Cn2cc([N+](=O)[O-])nc2O1`, the melting point lay within 176 to 178 °C.

Turning to `CCOC1=CC=CC(C=O)C1(OCc1ccccc1)[N+](=O)[O-]` (stereo unspecified), the melting point is 110 to 111 °C.

`CCOC(=O)C(C)Oc1ncn(-c2ccc(Cl)cc2)n1` (stereo unspecified) yielded a melting point of 62 to 64 °C.

Compound `CCOC(=O)Cc1cc(Br)c(OC(=S)N(C)C)c(Br)c1` showed a melting point of 93 to 95 °C.
